Experimental data: PubChem BioAssay AID1963980 (Molecular Pharmacology Branch, DTP, NCI, 2024)

System: 475296-252-R-J1-PDC spheroid viability
Assay: Anticancer human tumor 475296-252-R-J1-PDC patient-derived rectal carcinoma cell line growth inhibition [PI3K]
Conditions: spheroids with HUVEC and MSC; for IC50: curve of first compound; for viability, T/C: stronger effect = lower value; active = viability on the fitted dose curve at most 10% of control; inactive = the rest
Source text: Combinatorial screen of targeted agents with the PI3K inhibitors inavolisib, alpelisib, duvelisib, and copanlisib in multi-cell type tumor spheroids
A high-throughput screen of multi-cell type tumor spheroids was designed to identify active combinations of targeted small molecules and PI3K pathway inhibitors. Complex spheroids include a stromal component modeled by human endothelial cells (HUVEC) and fibroblasts modeled by human mesenchymal stem cells (MSCs). The concentration ranges selected for each drug and investigational agent were based upon clinically achievable concentrations if the clinical Cmax of the agent was known.
Compounds. The drugs and investigational agents: inavolisib (NSC800729), alpelisib (NSC765974), duvelisib (NSC772469), copanlisib (NSC816437), ipatasertib (NSC767898), afuresertib (NSC778305), talazoparib (NSC767125), sapanisertib (NSC764658), selumetinib (NSC741078), tovorafenib (DAY101, NSC766906), vemurafenib (NSC761431), ravoxertinib (NSC781343), sotorasib (NSC818433), MRTX1133 (NSC 836407), abemaciclib (NSC 768073), palbociclib (NSC758247), venetoclax (NSC 766270), SY5609 (NSC837396), enzalutamide (NSC755605), and darolutamide (NSC825331), were obtained from the National Cancer Institute (NCI) Developmental Therapeutics Program Chemical Repository. The FDA-approved anticancer drug set is available from the NCI Developmental Therapeutics Program. […] The stock solutions were prepared in dimethyl sulfoxide (DMSO, Sigma-Aldrich, St. Louis, MO, cat. D2650) at 800-fold the tested concentration and stored at -70 degrees C prior to their use. All drugs and investigational agents were tested over a range starting from a high concentration at or near the clinical Cmax and decreasing in half-log increments. If the clinical Cmax for an agent had not been determined, the highest concentration tested was 10 microM.
Cell Culture. All cells were maintained in an incubator at 37 degrees C and 5% CO2 with 95% humidity. The PDC lines were cultured according to standard operating procedures established by the NCI PDMR (https://pdmr.cancer.gov/sops/default.htm). All PDCs were thawed and cultured in Matrigel-coated flasks prepared with a working solution of 1X Ham's F-12 nutrient mix, without supplementation (Invitrogen, Waltham, MA, cat. 11765054), 100 U/mL penicillin-streptomycin (Invitrogen, cat. 15140122), and 2.5% Matrigel (Corning Inc., Corning, NY, cat. 354248) for the first three passages. The 354836-022-R-J1-PDC, 475296-252-R-J1-PDC, and 997726-040-R-J2-PDC lines were cultured in 6A media, which includes advanced DMEM/F-12 (Thermo Fisher Scientific, cat. 12634028), 10 mM HEPES (Thermo Fisher Scientific, cat. 15630080), 1X GlutaMAX supplement (Thermo Fisher Scientific, cat. 35050061), 0.1 mg/mL primocin (InvivoGen, San Diego, CA, cat. ant-pm-2), 10% defined fetal bovine serum, heat inactivated (HyClone Laboratories Inc., Logan, UT, cat. SH30070.03HI), 50% L-WRN conditioned media (ATCC, cat. CRL-3276), 1.25 mM N-Acetyl-L-cysteine (Sigma-Aldrich, cat. A9165), 10 mM nicotinamide (Sigma-Aldrich, cat. N0636), 1X B-27 supplement (Thermo Fisher Scientific, cat. 17504044), 1X N-2 supplement (Thermo Fisher Scientific, cat. 17502048), and 10 microM Y-27632 dihydrochloride (Tocris Bioscience, Bristol, United Kingdom, cat. 1254). The 624824-186-R-J2-PDC line was cultured in 6C/Colon 1B media, which includes all 6A media components plus 50 ng/mL human EGF recombinant protein (Thermo Fisher Scientific, cat. PHG0311). […]

[1] = second compound 0.00316 µM, first compound 0.0316 µM
[2] = second compound 0.00316 µM, first compound 0.1 µM
[3] = second compound 0.01 µM, first compound 0.0316 µM
[4] = second compound 0.01 µM, first compound 0.1 µM
[5] = second compound 0.0316 µM, first compound 0.0316 µM
[6] = second compound 0.0316 µM, first compound 0.1 µM
[7] = second compound 0.1 µM, first compound 0.0316 µM
[8] = second compound 0.1 µM, first compound 0.1 µM
[9] = second compound 0.316 µM, first compound 0.0316 µM
[10] = second compound 0.316 µM, first compound 0.1 µM
[11] = second compound 1 µM, first compound 0.0316 µM
[12] = second compound 1 µM, first compound 0.1 µM
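Also: spheroids exposed to agents for seven days before readout.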

CC(C)n1nc(-c2ccc3oc(N)nc3c2)c2c(N)ncnc21 + CC(Nc1ccc2c(c1)OCCn1cc(N3C(=O)OCC3C(F)F)nc1-2)C(N)=O
inactive: viability, T/C (second compound 0.00316 µM, first compound 0.000316 µM) 91% | viability, T/C (second compound 0.00316 µM, first compound 0.001 µM) 83.2% | viability, T/C (second compound 0.00316 µM, first compound 0.00316 µM) 89.2% | viability, T/C (second compound 0.00316 µM, first compound 0.01 µM) 73.2% | viability, T/C [1] 74.9% | viability, T/C [2] 58.7% | viability, T/C (second compound 0.01 µM, first compound 0.000316 µM) 97.3% | viability, T/C (second compound 0.01 µM, first compound 0.001 µM) 81.5% | viability, T/C (second compound 0.01 µM, first compound 0.00316 µM) 95.1% | viability, T/C (second compound 0.01 µM, first compound 0.01 µM) 85.7% | viability, T/C [3] 82.3% | viability, T/C [4] 61.4% | viability, T/C (second compound 0.0316 µM, first compound 0.000316 µM) 85.5% | viability, T/C (second compound 0.0316 µM, first compound 0.001 µM) 113% | viability, T/C (second compound 0.0316 µM, first compound 0.00316 µM) 94.8% | viability, T/C (second compound 0.0316 µM, first compound 0.01 µM) 89.8% | viability, T/C [5] 77.7% | viability, T/C [6] 58% | viability, T/C (second compound 0.1 µM, first compound 0.000316 µM) 83.5% | viability, T/C (second compound 0.1 µM, first compound 0.001 µM) 88% | viability, T/C (second compound 0.1 µM, first compound 0.00316 µM) 92% | viability, T/C (second compound 0.1 µM, first compound 0.01 µM) 88.6% | viability, T/C [7] 77% | viability, T/C [8] 59.6% | viability, T/C (second compound 0.316 µM, first compound 0.000316 µM) 83.8% | viability, T/C (second compound 0.316 µM, first compound 0.001 µM) 89% | viability, T/C (second compound 0.316 µM, first compound 0.00316 µM) 88.8% | viability, T/C (second compound 0.316 µM, first compound 0.01 µM) 82.7% | viability, T/C [9] 74% | viability, T/C [10] 58.7% | viability, T/C (second compound 1 µM, first compound 0.000316 µM) 87.4% | viability, T/C (second compound 1 µM, first compound 0.001 µM) 83.3% | viability, T/C (second compound 1 µM, first compound 0.00316 µM) 83% | viability, T/C (second compound 1 µM, first compound 0.01 µM) 85.8% | viability, T/C [11] 71.1% | viability, T/C [12] 55.2%
> 0.1 µM: IC50 (second compound 0.00316 µM) | IC50 (second compound 0.01 µM) | IC50 (second compound 0.0316 µM) | IC50 (second compound 0.1 µM) | IC50 (second compound 0.316 µM) | IC50 (second compound 1 µM)

CCCS(=O)(=O)Nc1ccc(F)c(C(=O)c2c[nH]c3ncc(-c4ccc(Cl)cc4)cc23)c1F + CC(Nc1ccc2c(c1)OCCn1cc(N3C(=O)OCC3C(F)F)nc1-2)C(N)=O
> 10 µM: IC50 (second compound 0.00316 µM) | IC50 (second compound 0.01 µM) | IC50 (second compound 0.0316 µM) | IC50 (second compound 0.1 µM) | IC50 (second compound 0.316 µM) | IC50 (second compound 1 µM)
inactive: viability, T/C [1] 84.5% | viability, T/C [2] 84.3% | viability, T/C (second compound 0.00316 µM, first compound 0.316 µM) 81.7% | viability, T/C (second compound 0.00316 µM, first compound 1 µM) 85.2% | viability, T/C (second compound 0.00316 µM, first compound 3.16 µM) 92.6% | viability, T/C (second compound 0.00316 µM, first compound 10 µM) 101% | viability, T/C [3] 102% | viability, T/C [4] 89% | viability, T/C (second compound 0.01 µM, first compound 0.316 µM) 90.4% | viability, T/C (second compound 0.01 µM, first compound 1 µM) 83.2% | viability, T/C (second compound 0.01 µM, first compound 3.16 µM) 82.6% | viability, T/C (second compound 0.01 µM, first compound 10 µM) 91.7% | viability, T/C [5] 97.5% | viability, T/C [6] 94.8% | viability, T/C (second compound 0.0316 µM, first compound 0.316 µM) 96.8% | viability, T/C (second compound 0.0316 µM, first compound 1 µM) 89.8% | viability, T/C (second compound 0.0316 µM, first compound 3.16 µM) 75.9% | viability, T/C (second compound 0.0316 µM, first compound 10 µM) 88.3% | viability, T/C [7] 83.8% | viability, T/C [8] 96.6% | viability, T/C (second compound 0.1 µM, first compound 0.316 µM) 89.6% | viability, T/C (second compound 0.1 µM, first compound 1 µM) 84.5% | viability, T/C (second compound 0.1 µM, first compound 3.16 µM) 81.4% | viability, T/C (second compound 0.1 µM, first compound 10 µM) 81.9% | viability, T/C [9] 77.4% | viability, T/C [10] 94.5% | viability, T/C (second compound 0.316 µM, first compound 0.316 µM) 89.5% | viability, T/C (second compound 0.316 µM, first compound 1 µM) 79.1% | viability, T/C (second compound 0.316 µM, first compound 3.16 µM) 81.4% | viability, T/C (second compound 0.316 µM, first compound 10 µM) 70.4% | viability, T/C [11] 90.7% | viability, T/C [12] 92.6% | viability, T/C (second compound 1 µM, first compound 0.316 µM) 80.4% | viability, T/C (second compound 1 µM, first compound 1 µM) 90.3% | viability, T/C (second compound 1 µM, first compound 3.16 µM) 83.1% | viability, T/C (second compound 1 µM, first compound 10 µM) 72.7%
